Converted amounts (≈) assume the structure as drawn.
Assays:
Assay type in all cases: cell-based
[1] = system: Staphylococcus aureus 285; assay: In vitro antibacterial activity (MIC), agar dilution; details: 2-fold agar dilution, Muller-Hinton agar, 18 hours at 37° C., read-out: minimum inhibitory concentration (MIC)
Method in brief: (§1)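 Antibacterial activity is measured on Hoechst standard strains inoculated at 10^7 cfu/ml, following cultivation of 18 h at 37 °C; methicillin-resistant ones take 48 h at 30 °C.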

[2] = system: Esherichia coli DC0; assay: as above; details: 2-fold agar dilution, Muller-Hinton agar, 18 hours at 37° C., read-out: minimum inhibitory concentration (MIC)
Method in brief: as §1

[3] = system: Klebsiella aerogenes 1522E; assay: as above; details: 2-fold agar dilution, Muller-Hinton agar, 18 hours at 37° C., read-out: minimum inhibitory concentration (MIC)
Method in brief: as §1

[4] = system: Esherichia coli 078; assay: as above; details: 2-fold agar dilution, Muller-Hinton agar, 18 hours at 37° C., read-out: minimum inhibitory concentration (MIC)
Method in brief: as §1

[5] = system: Streptococcus faecium MD 8b; assay: as above; details: Enterococcus faecium, MD8B, 2-fold agar dilution, Muller-Hinton agar, 18 hours at 37° C., read-out: minimum inhibitory concentration (MIC)
Method in brief: as §1

[6] = system: Esherichia coli 1507E; assay: as above; details: 2-fold agar dilution, Muller-Hinton agar, 18 hours at 37° C., read-out: minimum inhibitory concentration (MIC)
Method in brief: as §1

[7] = system: Pseudomonas aeruginosa 9027; assay: as above; details: 2-fold agar dilution, Muller-Hinton agar, 18 hours at 37° C., read-out: minimum inhibitory concentration (MIC)
Method in brief: as §1

[8] = system: Pseudomonas aeruginosa 1592E; assay: as above; details: 2-fold agar dilution, Muller-Hinton agar, 18 hours at 37° C., read-out: minimum inhibitory concentration (MIC)
Method in brief: as §1

[9] = system: Streptococcus pyogens 77A; assay: as above; details: 2-fold agar dilution, Muller-Hinton agar, 18 hours at 37° C., read-out: minimum inhibitory concentration (MIC)
Method in brief: as §1

[10] = system: Klebsiella oxytoca 1082E; assay: as above; details: 2-fold agar dilution, Muller-Hinton agar, 18 hours at 37° C., read-out: minimum inhibitory concentration (MIC)
Method in brief: as §1

[11] = system: Salmonella typhimurium; assay: as above; details: Salmonella enterica, 2-fold agar dilution, Muller-Hinton agar, 18 hours at 37° C., read-out: minimum inhibitory concentration (MIC)
Method in brief: as §1

[12] = system: Pseudomonas aeruginosa 1771; assay: as above; details: 2-fold agar dilution, Muller-Hinton agar, 18 hours at 37° C., read-out: minimum inhibitory concentration (MIC)
Method in brief: as §1

[13] = system: Streptococcus pyogens 308A; assay: as above; details: 2-fold agar dilution, Muller-Hinton agar, 18 hours at 37° C., read-out: minimum inhibitory concentration (MIC)
Method in brief: as §1

[14] = system: Esherichia coli TEM; assay: as above; details: 2-fold agar dilution, Muller-Hinton agar, 18 hours at 37° C., read-out: minimum inhibitory concentration (MIC)
Method in brief: as §1

[15] = system: Staphylococcus aureus 503; assay: as above; details: 2-fold agar dilution, Muller-Hinton agar, 18 hours at 37° C., read-out: minimum inhibitory concentration (MIC)
Method in brief: as §1

[16] = system: Staphylococcus aureus SG511; assay: as above; details: 2-fold agar dilution, Muller-Hinton agar, 18 hours at 37° C., read-out: minimum inhibitory concentration (MIC)
Method in brief: as §1

[17] = system: Pseudomonas aeruginosa 1771M; assay: as above; details: Pseudomonas aeruginosa, 1771M, 18 h, read-out: minimum inhibitory concentration (MIC)
Method in brief: as §1

[18] = system: Esherichia coli DC2; assay: as above; details: 2-fold agar dilution, Muller-Hinton agar, 18 hours at 37° C., read-out: minimum inhibitory concentration (MIC)
Method in brief: as §1

[19] = system: Staphylococcus aureus 256E; assay: In vitro antibacterial activity against resistant strains (MIC); details: resistant strain Staphylococcus aureus 256E; 2-fold agar dilution; methicillin resistant strains 48 hours at 30° C.; read-out: minimum inhibitory concentration (MIC)
Experimental: (§2) 10^7 cfu/ml of bacteria were inoculated and cultured for 18 hours at 37° C. and then the antibacterial activities were measured. For the methicillin resistant strains the activities were measured after 48 hours of cultivation at 30° C. Hoechst Standard strains were used for the testings.

[20] = system: Staphylococcus aureus 121E; assay: as above; details: resistant strain Staphylococcus aureus 121E; 2-fold agar dilution; methicillin resistant strains 48 hours at 30° C.; read-out: minimum inhibitory concentration (MIC)
Experimental: as §2

[21] = system: Staphylococcus aureus 694E; assay: as above; details: resistant strain Staphylococcus aureus 694E; 2-fold agar dilution; methicillin resistant strains 48 hours at 30° C.; read-out: minimum inhibitory concentration (MIC)
Experimental: as §2

[22] = system: Staphylococcus aureus 693E; assay: as above; details: resistant strain Staphylococcus aureus 693E; 2-fold agar dilution; methicillin resistant strains 48 hours at 30° C.; read-out: minimum inhibitory concentration (MIC)
Experimental: as §2

[23] = system: Staphylococcus aureus 208E; assay: as above; details: resistant strain Staphylococcus aureus 208E; 2-fold agar dilution; methicillin resistant strains 48 hours at 30° C.; read-out: minimum inhibitory concentration (MIC)
Experimental: as §2

[24] = system: Staphylococcus aureus 695E; assay: as above; details: resistant strain Staphylococcus aureus 695E; 2-fold agar dilution; methicillin resistant strains 48 hours at 30° C.; read-out: minimum inhibitory concentration (MIC)
Experimental: as §2

[25] = system: Staphylococcus aureus 88E; assay: as above; details: resistant strain Staphylococcus aureus 88E; 2-fold agar dilution; methicillin resistant strains 48 hours at 30° C.; read-out: minimum inhibitory concentration (MIC)
Experimental: as §2

[26] = system: Staphylococcus aureus 701E; assay: as above; details: resistant strain Staphylococcus aureus 701E; 2-fold agar dilution; methicillin resistant strains 48 hours at 30° C.; read-out: minimum inhibitory concentration (MIC)
Experimental: as §2

[27] = system: Staphylococcus epidermidis 291; assay: as above; details: resistant strain Staphylococcus epidermidis 291; 2-fold agar dilution; methicillin resistant strains 48 hours at 30° C.; read-out: minimum inhibitory concentration (MIC)
Experimental: as §2

[28] = system: Staphylococcus aureus 697E; assay: as above; details: resistant strain Staphylococcus aureus 697E; 2-fold agar dilution; methicillin resistant strains 48 hours at 30° C.; read-out: minimum inhibitory concentration (MIC)
Experimental: as §2

[29] = system: Staphylococcus aureus 241; assay: as above; details: resistant strain Staphylococcus aureus 241; 2-fold agar dilution; methicillin resistant strains 48 hours at 30° C.; read-out: minimum inhibitory concentration (MIC)
Experimental: as §2

[30] = system: Staphylococcus aureus 703E; assay: as above; details: resistant strain Staphylococcus aureus 703E; 2-fold agar dilution; methicillin resistant strains 48 hours at 30° C.; read-out: minimum inhibitory concentration (MIC)
Experimental: as §2

[31] = system: Staphylococcus aureus 293; assay: as above; details: resistant strain Staphylococcus aureus 293; 2-fold agar dilution; methicillin resistant strains 48 hours at 30° C.; read-out: minimum inhibitory concentration (MIC)
Experimental: as §2

[32] = system: Staphylococcus epidermidis 178; assay: as above; details: resistant strain Staphylococcus epidermidis 178; 2-fold agar dilution; methicillin resistant strains 48 hours at 30° C.; read-out: minimum inhibitory concentration (MIC)
Experimental: as §2

[33] = system: Staphylococcus aureus 179; assay: as above; details: resistant strain Staphylococcus aureus 179; 2-fold agar dilution; methicillin resistant strains 48 hours at 30° C.; read-out: minimum inhibitory concentration (MIC)
Experimental: as §2

[34] = system: Staphylococcus aureus 8236; assay: as above; details: resistant strain Staphylococcus aureus 8236; 2-fold agar dilution; methicillin resistant strains 48 hours at 30° C.; read-out: minimum inhibitory concentration (MIC)
Experimental: as §2

[35] = system: Staphylococcus aureus 692E; assay: as above; details: resistant strain Staphylococcus aureus 692E; 2-fold agar dilution; methicillin resistant strains 48 hours at 30° C.; read-out: minimum inhibitory concentration (MIC)
Experimental: as §2

[36] = system: Staphylococcus aureus 690E; assay: as above; details: resistant strain Staphylococcus aureus 690E; 2-fold agar dilution; methicillin resistant strains 48 hours at 30° C.; read-out: minimum inhibitory concentration (MIC)
Experimental: as §2

[37] = system: Staphylococcus aureus 303; assay: as above; details: resistant strain Staphylococcus aureus 303; 2-fold agar dilution; methicillin resistant strains 48 hours at 30° C.; read-out: minimum inhibitory concentration (MIC)
Experimental: as §2

O=C(O)c1cn(C2CC2)c2cc(N3CCNCC3)c(F)cc2c1=O [Ciprofloxacin, ciprofloxacin, reference compound]
MIC [1]: 0.781 µg/mL (≈ 2.36 µM) | MIC [2]: 0.195 µg/mL (≈ 0.589 µM) | MIC [3]: 0.013 µg/mL (≈ 0.0392 µM) | MIC [4]: 0.004 µg/mL (≈ 0.0121 µM) | MIC [5]: 0.391 µg/mL (≈ 1.18 µM) | MIC [6]: 0.007 µg/mL (≈ 0.0211 µM) | MIC [7]: 0.195 µg/mL (≈ 0.589 µM) | MIC [8]: 0.195 µg/mL (≈ 0.589 µM) | MIC [9]: 0.781 µg/mL (≈ 2.36 µM) | MIC [10]: < 0.002 µg/mL | MIC [11]: 0.007 µg/mL (≈ 0.0211 µM) | MIC [12]: 0.195 µg/mL (≈ 0.589 µM) | MIC [13]: 3.12 µg/mL (≈ 9.43 µM) | MIC [14]: 0.007 µg/mL (≈ 0.0211 µM) | MIC [15]: 0.391 µg/mL (≈ 1.18 µM) | MIC [16]: 0.195 µg/mL (≈ 0.589 µM) | MIC [17]: 0.049 µg/mL (≈ 0.148 µM) | MIC [18]: 0.049 µg/mL (≈ 0.148 µM) | MIC [19]: 0.781 µg/mL (≈ 2.36 µM) | MIC [20]: 0.781 µg/mL (≈ 2.36 µM) | MIC [21]: 0.391 µg/mL (≈ 1.18 µM) | MIC [22]: 0.391 µg/mL (≈ 1.18 µM) | MIC [23]: 0.781 µg/mL (≈ 2.36 µM) | MIC [24]: 0.391 µg/mL (≈ 1.18 µM) | MIC [25]: 0.781 µg/mL (≈ 2.36 µM) | MIC [26]: 0.391 µg/mL (≈ 1.18 µM) | MIC [27]: 50 µg/mL (≈ 151 µM) | MIC [28]: 0.391 µg/mL (≈ 1.18 µM) | MIC [29]: 12.5 µg/mL (≈ 37.7 µM) | MIC [30]: 0.391 µg/mL (≈ 1.18 µM) | MIC [31]: 12.5 µg/mL (≈ 37.7 µM) | MIC [32]: 50 µg/mL (≈ 151 µM) | MIC [33]: 12.5 µg/mL (≈ 37.7 µM) | MIC [34]: 12.5 µg/mL (≈ 37.7 µM) | MIC [35]: 0.391 µg/mL (≈ 1.18 µM) | MIC [36]: 0.391 µg/mL (≈ 1.18 µM) | MIC [37]: 12.5 µg/mL (≈ 37.7 µM)

Source: patent publication US6552196B2, “Quinolone carboxylic acid derivatives” (Dong Wha Pharmaceutical Industrial Co., Ltd., priority 1997, dated 2003)
